The record followed here is patent publication US10975092B2, “Pyrimidine seven-membered-ring compounds, preparation method therefor, pharmaceutical composition thereof, and uses thereof” (priority 2016, dated 2021).

For one assay, the target named is T1, recombinant MST2 (Homo sapiens, UniProt Q13188).
T1 sequence (Q13188 1-491): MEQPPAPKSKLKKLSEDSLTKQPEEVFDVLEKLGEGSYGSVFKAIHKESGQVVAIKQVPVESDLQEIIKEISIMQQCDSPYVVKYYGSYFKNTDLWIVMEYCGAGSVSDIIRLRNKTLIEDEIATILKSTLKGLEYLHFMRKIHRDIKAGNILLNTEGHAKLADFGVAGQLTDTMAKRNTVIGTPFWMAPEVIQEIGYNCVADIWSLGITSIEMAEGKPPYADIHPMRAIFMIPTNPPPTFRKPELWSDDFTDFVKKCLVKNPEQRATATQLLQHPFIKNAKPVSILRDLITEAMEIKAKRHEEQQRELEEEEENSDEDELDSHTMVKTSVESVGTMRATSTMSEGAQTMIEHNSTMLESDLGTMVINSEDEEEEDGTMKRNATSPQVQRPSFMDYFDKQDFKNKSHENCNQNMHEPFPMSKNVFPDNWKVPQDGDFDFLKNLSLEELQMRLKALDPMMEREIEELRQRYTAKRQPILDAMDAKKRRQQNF
The experiment in a line: Inhibition of Mst2 kinase activity, ELISA of Mob1 substrate phosphorylation. To be noted: MST2 IC50, 3.7 nM recombinant MST2; ATP 11.2 gIVI; GST-Mob1a substrate; 30° C. 15 min. Type of assay: biochemical. The method, then: (§1) We adopt a specific ELISA (Enzyme-linked immunosorbent assay) assay for measuring the biochemical activity (FIG. 1).
(§2) Specific methods are as follows:
(§3) 1. The substrate was diluted with purified recombinant GST-Mobla 200 nM in coating buffer, added to 96-well plates (Nalge Nunc International, Denmark), coated for overnight at 4° C., washed nextday three times with rinsing solution;
(§4) a. A kinase reaction buffer;
(§5) c. compound (dissolved in DMSO, containing not more than 1% of the total volume of the reaction);
(§6) Control Group Containing No ATP or Kinase;
(§7) 3. The reaction solution was poured to terminate the kinase reaction, and washed 4 times with rinse solution, 5 minutes each wash;
(§8) 4. Add 200 μL, per well of the blocking solution, shaking for 1 hour at room temperature, washed 4 times with rinsing solution;
(§9) 7. Add TMB chromogenic solution (Biolegend, Cat.B200119, B200120). After the color reaction to a certain extent, add to each well 100 μL, of 2M H2SO4 to terminate the reaction;
(§10) 8. […] Each set of three parallel experiments, the negative control is a solution with a final concentration of 1% DMSO, the control is the reaction system containing no ATP. […] The reagents are as follows: Coating Buffer: 0.1M NaHCO 3, 0.033M Na2CO3, pH 9.5 Rinse solution: 0.05% Tween-20 in PBS Reaction buffer: 40 mM of Hepes-NaOH (pH 7.4), 10 mM of MgCl2, 1 mM of dithiothreitol (DTT), 1 mM of NaF, 1 mM of Na3VO4, 1 mM of β-glycerophosphate Blocking solution: 1% BSA dissolved in PBS Compound Inhibition of Kinase Activity
(In general: In an ELISA, binding on a coated surface is turned into a signal by an enzyme label.)

Another assay deals with T2, recombinant Mst1 (Homo sapiens, UniProt Q13043).
T2 sequence (Q13043 1-487): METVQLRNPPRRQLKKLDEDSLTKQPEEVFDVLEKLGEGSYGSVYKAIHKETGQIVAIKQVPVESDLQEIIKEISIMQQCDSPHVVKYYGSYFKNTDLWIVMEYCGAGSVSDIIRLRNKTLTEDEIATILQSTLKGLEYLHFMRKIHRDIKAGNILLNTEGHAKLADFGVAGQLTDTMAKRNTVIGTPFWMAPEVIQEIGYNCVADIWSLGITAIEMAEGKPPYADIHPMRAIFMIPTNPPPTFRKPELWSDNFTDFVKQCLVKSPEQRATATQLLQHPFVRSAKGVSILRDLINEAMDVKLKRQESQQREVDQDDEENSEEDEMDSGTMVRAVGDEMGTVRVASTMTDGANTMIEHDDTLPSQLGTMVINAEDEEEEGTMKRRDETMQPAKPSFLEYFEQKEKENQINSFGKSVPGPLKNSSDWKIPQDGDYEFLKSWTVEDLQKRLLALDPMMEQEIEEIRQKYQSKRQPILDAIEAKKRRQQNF
Nature of the assay: Inhibition of Mst1 kinase activity, ELISA of Mob1 substrate phosphorylation. To be noted: MST1 IC50, recombinant Mst1 11 nM; ATP 6.7 gIVI; GST-Mob1a substrate; 30° C. 15 min. The class given is biochemical. The method, then: as §1, §2, §3, §4, §5, §6, §7, §8, §9, §10

On to `CN1C(=O)c2sccc2N(C)c2nc(Nc3ccc(O)cc3)ncc21` [II-12], for which the IC50 (in general, the concentration that gives 50% inhibition) on recombinant MST2 was 220 nM; on recombinant Mst1, 570 nM.

With `CN1C(=O)c2ccccc2Nc2nc(Nc3ccc(NS(C)(=O)=O)cc3)ncc21` [IG-2], the IC50 came out at 14600 nM on recombinant MST2 and 5800 nM at recombinant Mst1. For `CN1C(=O)c2ccccc2N(C)c2nc(Nc3ccc(S(C)(=O)=O)cc3)ncc21` [IC-7], in that order: 90 nM and 500 nM. Turning to `CN1C(=O)c2sccc2N(C)c2nc(Nc3ccc(NC(=O)CBr)cc3)ncc21` [II-19], the 50% inhibitory concentration (IC50) on recombinant MST2 came to 12600 nM; on recombinant Mst1 it was 3030 nM. For `Cc1ccc2c(c1)N(C)c1nc(Nc3ccc(S(C)(=O)=O)cc3)ncc1N(C)C2=O` [IH-1], in that order: 4810 nM and 5010 nM.

For `CSc1ccc(Nc2ncc3c(n2)N(C)c2ccsc2C(=O)N3C)cc1` [II-3], the IC50 amounted to 1720 nM on recombinant MST2 and 850 nM on recombinant Mst1. For `CN1C(=O)c2ccccc2Nc2nc(Nc3ccc(S(N)(=O)=O)cc3)ncc21` [IG-1], in that order: 2700 nM and 1550 nM. For `CN1C(=O)c2ccccc2N(C)c2nc(Nc3ccc(S(=O)(=O)Oc4ccccc4)cc3)ncc21` [IC-8], in that order: 200 nM and 13500 nM. With `CN1CCN(S(=O)(=O)c2ccc(Nc3ncc4c(n3)N(C)c3ccccc3C(=O)N4C)cc2)CC1` [IC-2], the figures for the half-inhibitory concentration (IC50) on recombinant MST2 and at recombinant Mst1 were 7800 nM and 2320 nM, respectively. For `CN1C(=O)c2sccc2N(C)c2nc(Nc3ccc(C(N)=O)cc3)ncc21` [II-13], in that order: 260 nM and 330 nM. Taken in the same sequence, the figures for `CN1C(=O)c2sccc2N(C)c2nc(Nc3ccc(S(=O)(=O)NC4CC4)cc3)ncc21` [II-6] were 20 nM and 260 nM. Taken in the same sequence, the figures for `CN1C(=O)c2ccccc2N(C)c2nc(Nc3ccc(NS(C)(=O)=O)cc3)ncc21` [IC-10] were 80 nM and 240 nM.

`CN1C(=O)c2sccc2N(C)c2nc(Nc3ccc(C(=O)O)cc3)ncc21` [II-10]: the results for the half-inhibitory concentration (IC50) at recombinant MST2 and at recombinant Mst1 were 1970 nM and 1020 nM, respectively. Turning to `CN1C(=O)c2sccc2N(C)c2nc(Nc3ccc(NC(=O)CCl)cc3)ncc21` [II-18], the IC50 on recombinant MST2 was determined as 13000 nM; on recombinant Mst1, 3340 nM. Turning to `CN1C(=O)c2ccc(F)cc2N(C)c2nc(Nc3ccc(S(N)(=O)=O)cc3)ncc21` [IH-7], the half-maximal inhibitory concentration (IC50) at recombinant MST2 came out at 2490 nM; at recombinant Mst1, 3120 nM. Taken in the same sequence, the figures for `CN1C(=O)c2ccccc2N(C2CCCC2)c2nc(Nc3ccc(S(N)(=O)=O)cc3)ncc21` [IF-2] were 3860 nM and 630 nM. For `CN1CCN(S(=O)(=O)c2ccc(Nc3ncc4c(n3)N(C3CCCC3)c3ccccc3C(=O)N4)cc2)CC1` [IB-2], in that order: over 30000 nM and over 30000 nM. For `CN1C(=O)c2sccc2N(C)c2nc(Nc3cnn(C(=O)CCl)c3)ncc21` [II-30], in that order: 440 nM and 810 nM. On to `CN1C(=O)c2ccccc2N(C)c2nc(Nc3ccc(S(=O)(=O)N4CCC(O)CC4)cc3)ncc21` [IC-3], for which the IC50 at recombinant MST2 was 520 nM; on recombinant Mst1, 670 nM. Taken in the same sequence, the figures for `CN1CCN(C(=O)c2ccc(Nc3ncc4c(n3)N(C)c3ccsc3C(=O)N4C)cc2)CC1` [II-17] were 2510 nM and 610 nM. For `CN1CCN(C2CCN(C(=O)c3ccc(Nc4ncc5c(n4)N(C)c4ccsc4C(=O)N5C)cc3)CC2)CC1` [II-24], in that order: 2250 nM and 220 nM.

`CCN1c2ccccc2C(=O)N(C)c2cnc(Nc3ccc(NS(C)(=O)=O)cc3)nc21` [ID-2]: the values for the half-maximal inhibitory concentration (IC50) on recombinant MST2 and on recombinant Mst1 were 390 nM and 80 nM, respectively. With `CN1C(=O)c2sccc2N(C)c2nc(Nc3cn[nH]c3)ncc21` [II-28], the concentration for half-maximal inhibition (IC50) at recombinant MST2 was found to be 360 nM; at recombinant Mst1, 540 nM. As for `C=CS(=O)(=O)Nc1ccc(Nc2ncc3c(n2)N(C)c2ccsc2C(=O)N3C)cc1` [II-26], the concentration for half-maximal inhibition (IC50) came to 410 nM on recombinant MST2 and 820 nM on recombinant Mst1. For `CN1C(=O)c2ccc(F)cc2N(C)c2nc(Nc3ccc(S(C)(=O)=O)cc3)ncc21` [IH-8], in that order: 3360 nM and 2170 nM.

As for `CN1C(=O)c2ccc(Cl)cc2N(C)c2nc(Nc3ccc(S(N)(=O)=O)cc3)ncc21` [IH-13], the half-maximal inhibitory concentration (IC50) at recombinant MST2 was 9470 nM; on recombinant Mst1, 7820 nM. Taken in the same sequence, the figures for `CC(C)N1c2ccccc2C(=O)N(C)c2cnc(Nc3ccc(NS(C)(=O)=O)cc3)nc21` [IE-3] were 8210 nM and 2720 nM. Taken in the same sequence, the figures for `CN1C(=O)c2ccccc2N(C)c2nc(Nc3ccc(S(=O)(=O)NC4CC4)cc3)ncc21` [IC-9] were 2330 nM and 180 nM. As to `CN1CCN(c2ccc(Nc3ncc4c(n3)N(C)c3ccsc3C(=O)N4C)cc2)CC1` [II-21], the IC50 amounted to 3100 nM on recombinant MST2 and 250 nM on recombinant Mst1. For `CN1C(=O)c2sccc2N(C)c2nc(Nc3ccc(N4CCC(O)CC4)cc3)ncc21` [II-15], in that order: 1990 nM and 650 nM.

On to `CN1C(=O)c2cccc3c2N(CC3)c2nc(Nc3ccc(S(N)(=O)=O)cc3)ncc21` [IV-3], for which the results for the 50% inhibitory concentration (IC50) on recombinant MST2 and on recombinant Mst1 were 1610 nM and 430 nM, respectively. In the case of `CCN1CCN(Cc2ccc(Nc3ncc4c(n3)N(C3CCCC3)c3ccccc3C(=O)N4C)cc2C(F)(F)F)CC1` [IF-6], on recombinant Mst1, the IC50 is 9760 nM. As for `Cc1ccc2c(c1)N(C)c1nc(Nc3ccc(S(N)(=O)=O)cc3)ncc1N(C)C2=O` [IH-5], the IC50 is 2730 nM on recombinant MST2 and 2400 nM at recombinant Mst1.

With `CN1C(=O)c2cc(Cl)ccc2N(C)c2nc(Nc3ccc(S(N)(=O)=O)cc3)ncc21` [IH-10], the IC50 at recombinant Mst1 was found to be 5930 nM. With `CN1CCN(S(=O)(=O)c2ccc(Nc3ncc4c(n3)N(C)c3ccsc3C(=O)N4C)cc2)CC1` [II-7], the values for the IC50 at recombinant MST2 and on recombinant Mst1 were 150 nM and 1100 nM, respectively. Taken in the same sequence, the figures for `Cc1cccc2c1N(C)c1nc(Nc3ccc(S(C)(=O)=O)cc3)ncc1N(C)C2=O` [IH-2] were 1680 nM and 890 nM. On to `Cc1cccc2c1N(C)c1nc(Nc3ccc(S(N)(=O)=O)cc3)ncc1N(C)C2=O` [IH-4], for which the 50% inhibitory concentration (IC50) on recombinant MST2 came out at 190 nM; at recombinant Mst1, 150 nM. Regarding `CN1C(=O)c2sccc2N(C)c2nc(Nc3cc[nH]n3)ncc21` [II-27], the IC50 on recombinant Mst1 stood at 3440 nM. The same measure, in the same setting: to `CN1CCN(S(=O)(=O)c2ccc(Nc3ncc4c(n3)N(C3CCCC3)c3ccccc3C(=O)N4C)cc2)CC1` [IF-4] belongs 6460 nM. For the molecule `O=C1Nc2cnc(Nc3ccc(S(=O)(=O)N4CCC(O)CC4)cc3)nc2N(C2CCCC2)c2ccccc21` [IB-3], the half-inhibitory concentration (IC50) at recombinant MST2 and at recombinant Mst1 was over 30000 nM each time. Take `CN1C(=O)c2cc(Cl)ccc2N(C)c2nc(Nc3ccc(S(C)(=O)=O)cc3)ncc21` [IH-9]: the IC50 worked out at 11600 nM on recombinant MST2 and 5670 nM on recombinant Mst1.

On to `CSc1ccc(Nc2ncc3c(n2)N(C)c2ccccc2C(=O)N3C)cc1` [IC-6], for which the IC50 at recombinant MST2 was 1800 nM; at recombinant Mst1, 1910 nM. Consider `CC(C)N1c2ccccc2C(=O)N(C)c2cnc(Nc3cccc(S(N)(=O)=O)c3)nc21` [IE-2], for which the half-inhibitory concentration (IC50) on recombinant Mst1 turned out to be 15800 nM.

With `CN1C(=O)c2sccc2N(C)c2nc(Nc3cccc(S(N)(=O)=O)c3)ncc21` [II-2], the IC50 at recombinant Mst1 was 2710 nM. As to `CN1C(=O)c2ccc(Cl)cc2N(C)c2nc(Nc3ccc(S(C)(=O)=O)cc3)ncc21` [IH-14], on recombinant MST2, the IC50 worked out at 22500 nM. `CCN1c2ccccc2C(=O)N(C)c2cnc(Nc3cccc(S(N)(=O)=O)c3)nc21` [ID-3]: the IC50 at recombinant Mst1 stood at 8650 nM.
